# Reference: US12180185B2, “Compound as protein kinase inhibitor, and pharmaceutical composition comprising thereof” (HK INNO.N Corporation, priority 2018, dated 2024)
# Molecular target: JAK1 (Homo sapiens (Human), UniProt P23458)
# Experiment: Analysis of JAK1 activity inhibitory capacity (ADP-Glo Kinase assay)
# Format: biochemical
# Settings: JAK1 enzyme, ATP 250 uM, IRS-1tide substrate, 30° C. 40 minutes, luminescence
# Method: Experimental Example 1: Analysis of JAK1 activity inhibitory capacity (ADP-Glo™ Kinase assay)
# An inhibitory effect of the inventive compound on JAK was identified as follows.
# A control material and a test material were prepared through dilution at each concentration by using DMSO. At the same time, ATP (250 uM) and JAK's substrate (JAK1, IRS-1tide 40 ng/mL) were prepared through dilution in kinase buffer (40 mM Tris-HCl pH 7.5, 20 mM MgCl2, 0.5 mg/mL BSA, 50 uM DTT).
# A test drug for each concentration, the substrate, the ATP and JAK enzymes were mixed in an eppendorf tube, and then subjected to reaction in an incubator at 30° C. for 40 minutes.
# ADP-Glo ? reagent included in ADP-Glo™ Kinase Enzyme System (Promega, USA, V9571) was added to each eppendorf tube, and then subjected to reaction in the incubator at 30° C. for 40 minutes.
# A kinase detection reagent included in the ADP-Glo™ Kinase Enzyme System was inserted into the eppendorf tube, after which luminescence was measured by using Wallac Victor 2TM with an integration time set to 1 second, such that an inhibitory capacity of the test material on JAKs phosphorylation was analyzed. A concentration of the compound, at which JAK enzyme activity inhibition occurs 50% compared to the control group, was determined as IC50 (nM) of an inhibitor.
# JAK1, sequence (P23458 whole entry): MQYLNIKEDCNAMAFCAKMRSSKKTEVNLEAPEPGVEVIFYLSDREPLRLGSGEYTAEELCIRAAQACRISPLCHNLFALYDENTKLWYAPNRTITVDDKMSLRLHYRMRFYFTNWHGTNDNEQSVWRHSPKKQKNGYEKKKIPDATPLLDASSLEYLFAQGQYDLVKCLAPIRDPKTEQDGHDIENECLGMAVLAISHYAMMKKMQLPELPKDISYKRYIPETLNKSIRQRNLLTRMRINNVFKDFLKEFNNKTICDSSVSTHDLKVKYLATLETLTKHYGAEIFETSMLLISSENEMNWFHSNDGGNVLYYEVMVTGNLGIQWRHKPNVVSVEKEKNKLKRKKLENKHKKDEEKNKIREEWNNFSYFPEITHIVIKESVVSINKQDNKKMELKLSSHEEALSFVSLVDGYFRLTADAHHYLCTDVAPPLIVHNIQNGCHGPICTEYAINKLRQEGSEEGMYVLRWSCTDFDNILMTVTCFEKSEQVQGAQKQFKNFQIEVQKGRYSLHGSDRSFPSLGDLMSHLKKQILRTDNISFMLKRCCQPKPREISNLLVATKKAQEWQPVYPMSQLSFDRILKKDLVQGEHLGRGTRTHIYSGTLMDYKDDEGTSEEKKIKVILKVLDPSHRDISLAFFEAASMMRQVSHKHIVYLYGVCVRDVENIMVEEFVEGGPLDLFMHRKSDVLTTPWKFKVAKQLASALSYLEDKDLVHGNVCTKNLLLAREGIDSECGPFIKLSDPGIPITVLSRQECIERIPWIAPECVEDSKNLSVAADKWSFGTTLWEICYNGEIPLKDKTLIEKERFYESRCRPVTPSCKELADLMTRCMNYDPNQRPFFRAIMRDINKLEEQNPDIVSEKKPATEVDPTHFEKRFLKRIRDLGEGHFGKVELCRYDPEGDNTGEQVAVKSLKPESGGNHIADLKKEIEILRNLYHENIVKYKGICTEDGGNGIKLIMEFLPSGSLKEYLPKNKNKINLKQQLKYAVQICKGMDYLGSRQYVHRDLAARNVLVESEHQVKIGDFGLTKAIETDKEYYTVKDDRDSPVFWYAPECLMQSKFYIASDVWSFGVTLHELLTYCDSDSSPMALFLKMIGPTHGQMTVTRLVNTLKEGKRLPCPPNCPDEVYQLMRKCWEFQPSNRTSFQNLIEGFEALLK
row,Compound,IC50
1,"O=C(NCC(F)(F)F)Nc1cccc2c(-c3ccnc(NC(=O)C4CC4)c3)cn(C(=O)NCC(F)(F)F)c12 [Example 37, 3-(2-(cyclopropanecarboxamido)pyridin-4-yl)-N-(2,2,2-trifluoroethyl)-7-(3-(2,2,2-trifluoroethyl)ureido)-1H-indole-1-carboxamide]",> 1000 nM
2,"Cc1ncc(C(=O)Nc2cccc3c2ccn3-c2ccnc(NC(=O)C3CC3)c2)s1 [Example 43, N-(1-(2-(cyclopropanecarboxamido)pyridin-4-yl)-1H-indol-4-yl)-2-methylthiazole-5-carboxamide]",> 1000 nM
3,"O=C(Nc1cccc2c1ccn2-c1ccnc(NC(=O)C2CC2)c1)c1cc(F)cc(F)c1 [Example 44, N-(1-(2-(cyclopropanecarboxamido)pyridin-4-yl)-1H-indol-4-yl)-3,5-difluorobenzamide]",> 1000 nM
4,"Cn1cccc(C(=O)Nc2cccc3c2ccn3-c2ccnc(NC(=O)C3CC3)c2)c1=O [Example 45, N-(1-(2-(cyclopropanecarboxamido)pyridin-4-yl)-1H-indol-4-yl)-1-methyl-2-oxo-1,2-dihydropyridine-3-carboxamide]",> 1000 nM
5,"N#C/C(=C/c1cccs1)C(=O)Nc1cccc2c1ccn2-c1ccnc(NC(=O)C2CC2)c1 [Example 46, N-(4-(4-(2-cyano-3-(thiophen-2-yl)acrylamido)-1H-indol-1-yl)pyridin-2-yl)cyclopropanecarboxamide]",> 1000 nM
6,"N#Cc1ccc(C(=O)Nc2cccc3c2ccn3-c2ccnc(NC(=O)C3CC3)c2)cc1 [Example 47, 4-cyano-N-(1-(2-(cyclopropanecarboxamido)pyridin-4-yl)-1H-indol-4-yl)benzamide]",> 1000 nM
7,"N#C/C(=C\c1ccccc1)C(=O)Nc1cccc2c1ccn2-c1ccnc(NC(=O)C2CC2)c1 [Example 48, N-(4-(4-(2-cyano-3-phenylacrylamido)-1H-indol-1-yl)pyridin-2-yl)cyclopropanecarboxamide]",> 1000 nM
8,"Cn1c(C(=O)Nc2cccc3c2ccn3-c2ccnc(NC(=O)C3CC3)c2)cc2ccccc21 [Example 49, N-(1-(2-(cyclopropanecarboxamido)pyridin-4-yl)-1H-indol-4-yl)-1-methyl-1H-indole-2-carboxamide]",> 1000 nM
9,"N#CC1(C(=O)Nc2cccc3c2ccn3-c2ccnc(NC(=O)C3CC3)c2)CCOCC1 [Example 50, 4-cyano-N-(1-(2-(cyclopropanecarboxamido)pyridin-4-yl)-1H-indol-4-yl)tetrahydro-2H-pyran-4-carboxamide]",> 1000 nM
10,"N#Cc1cc(C(=O)Nc2cccc3c2ccn3-c2ccnc(NC(=O)C3CC3)c2)ccn1 [Example 51, 2-cyano-N-(1-(2-(cyclopropanecarboxamido)pyridin-4-yl)-1H-indol-4-yl)isonicotinamide]",> 1000 nM
11,"O=C(Nc1cccc2c1ccn2-c1ccnc(NC(=O)C2CC2)c1)c1ccnc(F)c1 [Example 52, N-(1-(2-(cyclopropanecarboxamido)pyridin-4-yl)-1H-indol-4-yl)-2-fluoroisonicotinamide]",> 1000 nM
12,"CC(C#N)C(=O)Nc1cccc2c1ccn2-c1ccnc(NC(=O)C2CC2)c1 (stereo not drawn) [Example 54, N-(4-(4-(2-cyanopropanamido)-1H-indol-1-yl)pyridin-2-yl)cyclopropanecarboxamide]",100 to 1000 nM
13,"O=C(Nc1cccc2c1ccn2-c1ccnc(NC(=O)C2CC2)c1)c1cc[nH]n1 [Example 55, N-(1-(2-(cyclopropanecarboxamido)pyridin-4-yl)-1H-indol-4-yl)-1H-pyrazole-3-carboxamide]",> 1000 nM
14,"COc1ccc(C(=O)Nc2cccc3c2ccn3-c2ccnc(NC(=O)C3CC3)c2)cc1F [Example 56, N-(1-(2-(cyclopropanecarboxamido)pyridin-4-yl)-1H-indol-4-yl)-3-fluoro-4-methoxybenzamide]",100 to 1000 nM
15,"N#CC1(CC(=O)Nc2cccc3c2ccn3-c2ccnc(NC(=O)C3CC3)c2)CC1 [Example 58, N-(4-(4-(2-(1-cyanocyclopropyl)acetamido)-1H-indol-1-yl)pyridin-2-yl)cyclopropane carboxamide]",100 to 1000 nM
16,"Cc1ccc(C(=O)Nc2cccc3c2ccn3-c2ccnc(NC(=O)C3CC3)c2)cn1 [Example 59, N-(1-(2-(cyclopropanecarboxamido)pyridin-4-yl)-1H-indol-4-yl)-6-methylnicotinamide]",> 1000 nM
17,"CC(C)=C(C)C(=O)Nc1cccc2c1ccn2-c1ccnc(NC(=O)C2CC2)c1 [Example 60, N-(4-(4-(2,3-dimethylbut-2-enamido)-1H-indol-1-yl)pyridin-2-yl)cyclopropanecarboxamide]",> 1000 nM
18,"O=C(Nc1ccc(F)cc1F)Nc1cccc2c1ccn2-c1ccnc(NC(=O)C2CC2)c1 [Example 61, N-(4-(4-(3-(2,4-difluorophenyl)ureido)-1H-indol-1-yl)pyridin-2-yl)cyclopropanecarboxamide]",> 1000 nM

# The next lines start with the values.
row,IC50,Compound
1,100 to 1000 nM,"N#Cc1cc(C(=O)Nc2cccc3c(-c4ccnc(NC(=O)C5CC5)c4)c[nH]c23)ccn1 [Example 35, 2-cyano-N-(3-(2-(cyclopropanecarboxamido)pyridin-4-yl)-1H-indol-7-yl)isonicotin amide]"
2,100 to 1000 nM,"CCc1c[nH]c(C(=O)Nc2cccc3c(-c4ccnc(NC(=O)C5CC5)c4)c[nH]c23)c1 [Example 36, N-(3-(2-(cyclopropanecarboxamido)pyridin-4-yl)-1H-indol-7-yl)-4-ethyl-1H-pyrrole-2-carboxamide]"
3,100 to 1000 nM,"O=C(Nc1cccc2c(-c3ccnc(NC(=O)C4CC4)c3)c[nH]c12)c1cccc(F)c1 [Example 38, N-(3-(2-(cyclopropanecarboxamido)pyridin-4-yl)-1H-indol-7-yl)-3-fluorobenzamide]"
4,< 100 nM,"O=C(NCC(F)(F)F)Nc1cccc2c(-c3ccnc(NC(=O)C4CC4)c3)c[nH]c12 [Example 39, N-(4-(7-(3-(2,2,2-trifluoroethyl)ureido)-1H-indol-3-yl)pyridin-2-yl)cyclopropanecarboxamide]"
5,100 to 1000 nM,"CC(C)=C(C#N)C(=O)Nc1cccc2c1ccn2-c1ccnc(NC(=O)C2CC2)c1 [Example 40, N-(4-(4-(2-cyano-3-methylbut-2-enamido)-1H-indol-1-yl)pyridin-2-yl)cyclopropanecarboxamide]"
6,100 to 1000 nM,"N#CCC(=O)Nc1cccc2c1ccn2-c1ccnc(NC(=O)C2CC2)c1 [Example 41, N-(4-(4-(2-cyanoacetamido)-1H-indol-1-yl)pyridin-2-yl)cyclopropanecarboxamide]"
7,100 to 1000 nM,"O=C(Nc1cccc2c1ccn2-c1ccnc(NC(=O)C2CC2)c1)c1ccnc(F)c1F [Example 53, N-(1-(2-(cyclopropanecarboxamido)pyridin-4-yl)-1H-indol-4-yl)-2,3-difluoroisonicotinamide]"
8,< 100 nM,"N#C[C@H]1C[C@H]1C(=O)Nc1cccc2c1ccn2-c1ccnc(NC(=O)C2CC2)c1 [Example 57, (1R,2S)-2-cyano-N-(1-(2-(cyclopropanecarboxamido)pyridin-4-yl)-1H-indol-4-yl) cyclopropane-1-carboxamide]"
9,< 100 nM,"O=C(NCC(F)(F)F)Nc1cccc2c1ccn2-c1ccnc(NC(=O)C2CC2)c1 [Example 62, N-(4-(4-(3-(2,2,2-trifluoroethyl)ureido)-1H-indol-1-yl)pyridin-2-yl)cyclopropanecarboxamide]"
